Entries after “also recorded” stand apart in the source; their conditions may differ. Each block holds one molecule with its values, some of them ahead of it.
Legend:
LC-MS log p = assay type: physicochemical
Method: Cyano cyclopropyl ABA analogs were provided by Bayer (Division Crop Science, Höchst, Germany). All CCPs, except CCP8, were synthesized as described ([Frackenpohl et al., 2018]). For the synthesis of CCP8, ethyl-(2Z)-6-(1-cyanocyclopropyl)-3-ethyl-6-hydroxy-7-methyloct-2-en-4-ynoate, copper (I) iodide (7 mg, […]) and bis (triphenylphosphine) palladium (II) chloride (19 mg, 0.03 mmol) were charged under argon, and toluene (3 mL) together with ethyl (2Z)-3-iodopent-2-enoate (233 mg, 0.9 mmol; column chromatography purification of a crude product as described by [Frackenpohl et al., 2018]) were added at room temperature. After stirring for 10 min, 1-(3-hydroxy-4-methylpent-1-yn-3-yl) cyclopropanecarbonitrile (150 mg, 0.9 mmol; synthesis as describe by [Frackenpohl et al., 2018]) dissolved in toluene (3 mL) and diisopropylamine (0.4 mL, 2.8 mmol) were added. The resulting reaction mixture was stirred for 3 h prior to addition of water. The aqueous phase was extracted repeatedly with dichloromethane. The combined organic phases were dried over magnesium sulphate, filtered, and concentrated under reduced pressure. […]

RCAR11-ABI2 = tested on: T1, RCAR11-ABI2; test: In vitro phosphatase assay, ABI2 with RCAR11; assay type: biochemical, Arabidopsis thaliana; settings: esterase-treated
T1 construct: 6xHis (N); made in house; host or cells: Escherichia coli BL21
Method: Expression, purification, and analysis of RCAR and PP2C proteins were performed essentially as described ([Ruschhaupt et al., 2019]). Briefly, the ABA receptors RCAR1, RACR8, and RCAR11 were expressed with an aminoterminal histidine tag using the pSEVA431_LII_6xHIS::RCAR1/RCAR8/RCAR11. ABA coreceptors were expressed as histidine-tagged fusions with the maltose-binding protein using the pSEVA431_LII_6xHIS::MBP::ABI2/HAB1. All constructs were transformed and expressed in Escherichia coli strain BL21 and purified to homogeneity according to supplier’s instruction (GE Healthcare, Chicago, USA). The receptor assay was performed with 100 nM PP2C and a two-fold molar excess of RCAR. Values are means ± SD of three replicates. […] The maximum inhibition was set to 100% in the figures. The phosphatase activity was measured using 4-methylumbelliferyl-phosphate as a substrate ([Meinhard and Grill, 2001]). The increase in fluorescence was recorded over 25 min with excitation and emission wavelengths at 360 and 460 nm, respectively, using a Synergy 2 plate reader (Bio-Tec, Winooski, USA).

[1] = tested on: Arabidopsis aba2-1 protoplasts; test: Transient ABA response in Arabidopsis protoplasts (pRD29B::LUC, RCAR11 and ABI2 effectors); assay type: cell-based, Arabidopsis thaliana
Method: Preparation of Arabidopsis protoplasts, transfection of the effector DNA, and analysis of LUC activity were performed as described ([Tischer et al., 2017]). In essence, 10^5 mesophyll protoplasts from leaves of the ABA deficient mutant aba2-1 ([Schwartz et al., 1997]) were transfected with 4 µg DNA of the pRD29B::LUC construct as an ABA-responsive reporter and 3 µg of p35S::GUS (β-glucuronidase reporter gene) expression cassette as an internal control for normalization. In addition, 3 µg p35S::RCAR11 or the empty vector with the same expression cassette were co-expressed with 0.1 µg p35S::ABI2 effector constructs ([Tischer et al., 2017]), and the ligand-dependent induction of ABA-responsive reporter expression were assessed after incubation at 22°C. The expression of LUC and GUS was determined 18 h after transfection and ligand administration.

Arabidopsis plants = test: Foliar administration and thermal imaging of leaf temperature (transpiration), Arabidopsis; assay type: in vivo, Arabidopsis thaliana; settings: for Leaf temperature increase, activity compared to ABA: 10, 30, 100 µM, one day after application
Method: (§1) Thermal imaging was carried out as described ([Yang et al., 2016]). An assessment of the efficacy of ABA and CCPs was conducted by using 35-day-old Arabidopsis and 30-day-old wheat plants. Stock solutions (10 mM) of CCPs and ABA dissolved in dimethyl sulfoxide (DMSO) were diluted to the respective ligand concentrations (10, 30, 100 µM) in water containing 0.01% (v/v) Tween 20. Aqueous Tween 20 solutions supplemented with 0.1%, 0.3%, and 1% DMSO served for mock treatments. The solutions were sprayed onto the leaf surface until the run-off of droplets. One day after application (unless otherwise indicated), thermal imaging was conducted using the InfraTec instrument (IR-TCM 384, InfraTec, Dresden, Germany). The leaf temperature of Arabidopsis was determined as the average temperature of all leaves. The leaf temperature of wheat was determined as described ([Yang et al., 2019]).

wheat plants = test: Foliar administration and thermal imaging of leaf temperature, wheat; assay type: in vivo, Triticum aestivum; settings: 100 μM, 24 h after administration
Method: as §1

[2] = molecular target: ABI2 (Arabidopsis thaliana) (UniProt O04719)
Sequence of ABI2 (Arabidopsis thaliana) (O04719 whole entry): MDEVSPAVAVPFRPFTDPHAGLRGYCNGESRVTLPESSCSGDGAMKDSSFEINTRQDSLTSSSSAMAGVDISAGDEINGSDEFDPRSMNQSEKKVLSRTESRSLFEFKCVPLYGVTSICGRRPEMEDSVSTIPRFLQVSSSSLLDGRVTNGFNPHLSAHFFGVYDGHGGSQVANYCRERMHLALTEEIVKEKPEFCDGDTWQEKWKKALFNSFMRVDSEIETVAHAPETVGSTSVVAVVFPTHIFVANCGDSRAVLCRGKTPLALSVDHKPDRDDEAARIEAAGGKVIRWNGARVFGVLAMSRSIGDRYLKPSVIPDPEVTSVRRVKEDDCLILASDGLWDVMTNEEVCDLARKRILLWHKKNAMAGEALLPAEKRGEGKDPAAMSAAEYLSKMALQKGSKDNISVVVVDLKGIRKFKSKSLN

Molecule: COC(=O)/C=C(\C=C\C(O)(C1CC1)C1(C#N)CC1)C(F)(F)F (stereo not shown) [CCP5]
Activity with RCAR11-ABI2 receptor complex compared to ABA (RCAR11-ABI2): slightly lower activity than ABA
Concentration for half-maximum inhibition of ABI2 relative to ABA (RCAR11-ABI2; approximately 60% conversion into free acid): twofold
Induction of ABA signaling compared to ABA ([1]; aba2-1 protoplasts, 18 h ligand exposure): most active compound
Higher induction rates than ABA ([1]; at different ligand concentrations): up to 60%
Potency in reducing transpiration compared to ABA (Arabidopsis plants; 10 µM): more potent than 100 µM ABA
Leaf temperature increase, activity compared to ABA (Arabidopsis plants): more efficacious than ABA and even exceeding the efficacy of CCP1 to CCP3
Duration of persistent response (Arabidopsis plants; 10 and 30 µM ligand treatment): 10 days
Potency relative to ABA (Arabidopsis plants; 10 and 30 µM ligand vs 100 µM ABA): more than tenfold; also recorded: more than ten times
Duration of effect relative to ABA (Arabidopsis plants; 10 and 30 µM ligand vs ABA): approximately three times
Efficiency in minimizing transpiration compared to ABA (Arabidopsis plants; foliar application): by an order of magnitude more efficient than ABA
Activity and persistence of minimized transpiration compared to ABA (Arabidopsis plants; single application 100 µM, recorded for 19 days): more active and persistent than ABA
Leaf temperature increase, activity compared to ABA (wheat plants): somewhat less active

Molecule: COC(=O)/C=C(\C=C\C(O)(C1CCCC1)C1(C#N)CC1)C(F)(F)F (stereo not shown) [CCP6]
Activity with RCAR11-ABI2 receptor complex compared to ABA (RCAR11-ABI2): slightly lower activity than ABA
Leaf temperature increase, activity compared to ABA (Arabidopsis plants): somewhat lower efficacy

Molecule: COC(=O)/C=C(\C=C\C(O)(C(C)C)C1(C#N)CC1)C(F)(F)F (stereo not shown) [CCP4]
Activity with RCAR11-ABI2 receptor complex compared to ABA (RCAR11-ABI2): slightly lower activity than ABA
Leaf temperature increase, activity compared to ABA (Arabidopsis plants): moderately higher activity compared to ABA
Leaf temperature increase, activity compared to ABA (wheat plants): somewhat less active

Next, values leading:

chromatographic logP (LC-MS log p): 1.39
Molecule: CCOC(=O)/C=C(\C#CC(O)(C(C)C)C1(C#N)CC1)CC (stereo not shown) [CCP8, ethyl-(2Z)-6-(1-cyanocyclopropyl)-3-ethyl-6-hydroxy-7-methyloct-2-en-4-ynoate]

induction of the ABRE-LUC reporter in yeast expressing RCAR11, ABI2, OST1 and ABF2, with 30 µM ABA or CCP1 against mock-treated cells (dose series with ABA, CCP1, CCP2 in Figure 2A) [2]: 8 fold
Molecule: RCAR11/PYR1 (from UniProt O49686 1-191) (receptor)

Reference: publication PMC9894685, “Abscisic acid agonists suitable for optimizing plant water use” (Frontiers in Plant Science, 2023)
